Laboratory results reported in US20040087798A1, “Novel amide compounds” (priority 2000, published 2004).

`N=C(Nc1cccc(NC(=O)/C=C/c2ccccc2C(F)(F)F)c1)c1ccccc1` [Example 46, (2E)-N-[3-(iminobenzylamino)phenyl]-3-[2-(trifluoromethyl)phenyl]-2-propenamide] showed a melting point of 82 to 84 °C. `N=C(Nc1cc(Cl)cc(NC(=O)/C=C/c2ccccc2Br)c1)c1ccccc1` [Example 142, (2E)-N-[3-chloro-5-(iminobenzylamino)phenyl]-3-(2-bromophenyl)-2-propenamide] showed a melting point of 99 to 101 °C. For `CS(=O)(=O)Nc1ccc(C(=N)Nc2cc(Cl)cc(NC(=O)/C=C/c3ccccc3Cl)c2)cc1` [Example 147, (2E)-N-[3-chloro-5-[imino(4-methylsulfonylaminobenzyl)amino]phenyl]-3-(2-chlorophenyl)-2-propenamide], the melting point was 158 to 160 °C. For `COc1ccc(Cl)cc1C(=N)Nc1ccc(F)c(NC(=O)/C=C/c2ccccc2Cl)c1` [Example 18, (2E)-N-[5-[[(5-chloro-2-methoxyphenyl)(imino)methyl]amino]-2-fluorophenyl]-3-(2-chlorophenyl)-2-propenamide], the melting point was 229 to 230 °C. With `Cc1ccccc1/C=C/C(=O)Nc1cccc(NC(=N)c2ccccc2)c1` [Example 40, (2E)-N-[3 (iminobenzylamino)phenyl]-3-(2-methylphenyl)-2-propenamide] the melting point was 109 to 114 °C. `N=C(Nc1cccc(NC(=O)/C=C/c2cccc(Cl)c2)c1)c1ccccc1` [Example 53, (2E)-N-[3-(iminobenzylamino)phenyl]-3-(3-chlorophenyl)-2-propenamide] gave a melting point of 260 to 262 °C. For `O=C(C=Cc1ccccc1Cl)Nc1cccc(CNc2ccc3ccccc3n2)c1` [Example 50, N-[3-[(2-quinolylamino)methyl]phenyl]-3-(2-chlorophenyl)-2-propenamide], the melting point was 170 to 171 °C. Work on `N=C(Nc1cc(F)cc(NC(=O)/C=C/c2ccccc2C(F)(F)F)c1)c1ccccc1` [Example 137, (2E)-N-[3-fluoro-5-(iminobenzylamino)phenyl]-3-(2-trifluoromethylphenyl)-2-propenamide] yielded a melting point of 103 to 105 °C. With `N=C(Nc1cccc(NC(=O)C=Cc2ccccc2)c1)c1ccccc1` [Example 2, N-[3-(iminobenzylamino)phenyl]cinnamamide] the melting point was 115 to 117 °C. `N=C(Nc1cccc(NC(=O)/C=C/c2ccccc2C(F)(F)F)c1F)c1ccccc1` [Example 61, (2E)-N-[3-(iminobenzylamino)-2-fluorophenyl]-3-[2-(trifluoromethyl)phenyl]-2-propenamide] gave a melting point of 185 to 187 °C. `N=C(Nc1ccc(F)c(NC(=O)/C=C/c2ccccc2C(F)(F)F)c1)c1cccs1` [Example 62, (2E)-N-[2-fluoro-5-[[imino(2-thienyl)methyl]amino]phenyl]-3-[2-(trifluoromethyl)phenyl]-2-propenamide] showed a melting point of 208 to 209 °C. Work on `Cc1ncccc1Oc1ccc(C(=N)Nc2cc(Cl)cc(NC(=O)C=Cc3ccccc3Cl)c2)cc1` [Example 59, N-[3-chloro-5-[[imino[4-[(2-methyl-3-pyridyl)oxy]phenyl]methyl]amino]phenyl]-3-(2-chlorophenyl)-2-propenamide] yielded a melting point of 105 to 107 °C. For `COc1ccc(NC(=N)c2ccccc2)cc1NC(=O)/C=C/c1ccccc1C(F)(F)F` [Example 140, (2E)-N-[5-(iminobenzylamino)-2-methoxyphenyl]-3-(2-trifluoromethylphenyl)-2-propenamide], the melting point was 208 to 210 °C. With `Cc1cccc(/C=C/C(=O)Nc2cccc(NC(=N)c3ccccc3)c2)c1` [Example 39, (2E)-N-[3-(iminobenzylamino)phenyl]-3-(3-methylphenyl)-2-propenamide] the melting point was 179 to 180 °C. `N=C(Nc1ccc(Cl)c(NC(=O)/C=C/c2ccccc2C(F)(F)F)c1)c1ccccc1` [Example 141, (2E)-N-[2-chloro-5-(iminobenzylamino)phenyl]-3-(2-trifluoromethylphenyl)-2-propenamide] showed a melting point of 198 to 199 °C. For `N=C(Nc1cc(Cl)cc(NC(=O)/C=C/c2c[nH]c3ccccc23)c1)c1ccccc1` [Example 205, (2E)-N-[3-chloro-5-[[imino(phenyl)methyl]amino]phenyl]-3-(1H-indole-3-yl)-2-propenamide], the melting point was 184 to 187 °C. `CC(=O)Nc1ccc(C(=N)Nc2cc(NC(=O)/C=C/c3ccccc3C(F)(F)F)c(F)cc2F)cc1` [Example 152, (2E)-N-[2,4-difluoro-5-[imino(4-acetylaminobenzyl)amino]phenyl]-3-(2-trifluoromethylphenyl)-2-propenamide] showed a melting point of 180 to 185 °C. For `N=C(Nc1cccc(NC(=O)Cc2ccccc2)c1)c1ccccc1` [Example 1, N-[3-(iminobenzylamino)phenyl]phenylacetamide], the melting point was 213 to 214 °C. With `N=C(Nc1ccc(F)c(NC(=O)/C=C/c2ccccc2Cl)c1)c1cccs1` [Example 16, (2E)-N-[2-fluoro-5-[[imino(2-thienyl)methyl]amino]phenyl]-3-(2-chlorophenyl)-2 propenamide] the melting point was 215 to 216 °C. `N#Cc1cc(NC(=N)c2ccccc2)cc(NC(=O)/C=C/c2ccccc2C(F)(F)F)c1` [Example 36, (2E)-N-[3-cyano-5-(iminobenzylamino)phenyl]-3-[2-(trifluoromethyl)phenyl]-2-propenamide] gave a melting point of 181 to 182 °C. Compound `O=C(C=Cc1ccccc1Cl)Nc1cccc(-c2nc3ccccc3[nH]2)c1` [Example 58, N-[3-(1H-benzimidazol-2-yl)phenyl]-3-(2-chlorophenyl)-2-propenamide] has a melting point of 152 to 154 °C. `N=C(Nc1cc(Cl)cc(NC(=O)/C=C/c2ccccc2C(F)(F)F)c1)c1ccccc1F` [Example 148, (2E)-N-[3-chloro-5-[imino(2-fluorobenzyl)amino]phenyl]-3-(2-trifluoromethylphenyl)-2-propenamide] showed a melting point of 209 to 210 °C. `Cc1ncccc1Oc1ccc(NC(=O)C=Cc2ccccc2Cl)cn1` [Example 45, N-[6-[(2-methyl-3-pyridyl)oxy]-3-pyridyl]-3-(2-chlorophenyl)-2-propenamide] showed a melting point of 187 to 189 °C. Compound `CN(C)c1ccc(C(=N)Nc2cccc(NC(=O)C=Cc3ccccc3)c2)cc1` [Example 51, N-[3-[[[4-(dimethylamino)phenyl](imino)methyl]amino]phenyl]cinnamamide] has a melting point of 225 to 227 °C. Work on `N=C(Nc1cc(NC(=O)/C=C/c2ccccc2C(F)(F)F)ccc1Cl)c1ccccc1` [Example 145, (2E)-N-[4-chloro-3-(iminobenzylamino)phenyl]-3-(2-trifluoromethylphenyl)-2-propenamide] yielded a melting point of 188 to 189 °C. With `CC(C)c1ccc(NC(=N)c2cccc(NC(=O)C=Cc3ccccc3Cl)c2)cc1` [Example 27, N-[3-[imino(4-isopropylanilino)methyl]phenyl}-2-chlorocinnamamide] the melting point was 112 to 118 °C. In the case of `N=C(Nc1cc(Cl)c(Cl)c(NC(=O)/C=C/c2ccccc2C(F)(F)F)c1)c1ccccc1` [Example 154, (2E)-N-[2,3-dichloro-5-(iminobenzylamino)phenyl]-3-(2-trifluoromethylphenyl)-2-propenamide], the melting point is reported as 213 to 214 °C. With `O=C(C=Cc1ccccc1Cl)Nc1cc(Cl)cc(Nc2noc3ccccc23)c1` [Example 186, N-[3-(1,2-benzisoxazol-3-ylamino)-5-chlorophenyl]-2-chlorocinnamamide] the melting point was 133 to 135 °C. Work on `COc1ccc(F)cc1C(=N)Nc1cc(Cl)cc(NC(=O)/C=C/c2ccccc2Cl)c1` [Example 23, (2E)-N-[3-chloro-5-[[(5-fluoro-2-methoxyphenyl)(imino)methyl]amino]phenyl]-3-(2-chlorophenyl)-2-propenamide] yielded a melting point of 238 to 239 °C. Work on `Cc1ncccc1Oc1ccc(C(=N)Nc2cc(Cl)cc(NC(=O)C=Cc3ccccc3C(F)(F)F)c2)cc1` [Example 64, N-[3-chloro-5-[[imino[4-[(2-methyl-3-pyridyl)oxy]phenyl]methyl]amino]phenyl]-3-[2-(trifluoromethyl)phenyl]-2-propenamide] yielded a melting point of 114 to 119 °C. With `N=C(Nc1cc(Cl)cc(NC(=O)/C=C/c2ccccc2C(F)(F)F)c1)c1ccsc1` [Example 56, (2E)-N-[3-chloro-5-[[imino(3-thienyl)methyl]amino]phenyl]-3-[2-(trifluoromethyl)phenyl]-2-propenamide] the melting point was 121 to 123 °C. In the case of `N=C(Nc1cc(Cl)cc(NC(=O)/C=C/c2ccccc2Cl)c1)c1ccccc1` [Example 31, (2E)-N-[3-chloro-5-(iminobenzylamino)phenyl]-3-(2-chlorophenyl)-2-propenamide], the melting point is reported as 105 to 115 °C. For `N=C(Nc1cccc(NC(=O)/C=C/c2ccccc2Cl)c1)c1ccccc1` [Example 54, (2E)-N-[3-(iminobenzylamino)phenyl]-3-(2-chlorophenyl)-2-propenamide], the melting point was 262 to 264 °C. `N#Cc1ccccc1/C=C/C(=O)Nc1cc(Cl)cc(NC(=N)c2ccccc2)c1` [Example 67, (2E)-N-[3-chloro-5-(iminobenzylamino)phenyl]-3-(2-cyanophenyl)-2-propenamide] showed a melting point of 220 to 221 °C. For `N=C(Nc1cccc(NC(=O)/C=C/c2ccc(Cl)cc2)c1)c1ccccc1` [Example 47, (2E)-N-[3-(iminobenzylamino)phenyl]-3-(4-chlorophenyl)-2-propenamide], the melting point was 109 to 110 °C. With `N=C(Nc1cc(Cl)cc(NC(=O)/C=C/c2ccccc2F)c1)c1ccccc1` [Example 138, (2E)-N-[3-chloro-5-(iminobenzylamino)phenyl]-3-(2-fluorophenyl)-2-propenamide] the melting point was 186 to 187 °C. `CS(=O)(=O)Nc1cc(NC(=N)c2ccccc2)cc(NC(=O)/C=C/c2ccccc2C(F)(F)F)c1` [Example 146, (2E)-N-[3 (iminobenzylamino)-5-(methylsulfonylamino)phenyl]-3-(2-trifluoromethylphenyl)-2-propenamide] gave a melting point of 150 to 155 °C. Compound `O=C(C=Cc1ccccc1Cl)Nc1ccc(NCc2ccccn2)nc1` [Example 44, N-[6-[(2-pyridylmethyl)amino]-3-pyridyl]-3-(2-chlorophenyl)-2-propenamide] has a melting point of 164 to 165 °C.
